This passage reports mutagenic call results from PubChem BioAssay AID1259407 (Chemical Carcinogenesis Research Information System (CCRIS), 2018).

Active and inactive are the calls of the source. How the calls were made is not given here.

The test system of the series is CCRIS mutagenicity, Ames/micronucleus/aberration tests. The series is described as follows: CCRIS mutagenicity studies.
Setting [1] is: Test System: AMES SALMONELLA TYPHIMURIUM, Strain/Indicator: TA97, Metabolic Activation: NONE, Method: PREINCUBATION
Setting [2] is: Test System: AMES SALMONELLA TYPHIMURIUM, Strain/Indicator: TA98, Metabolic Activation: NONE, Method: PREINCUBATION
Setting [3] is: Test System: AMES SALMONELLA TYPHIMURIUM, Strain/Indicator: TA100, Metabolic Activation: NONE, Method: PREINCUBATION
Setting [4] is: Test System: UDS RAT HEPATOCYTES, Strain/Indicator: THY INCORP, Metabolic Activation: NONE, Method: AUTORADIOGRAPHY

On to `Cc1ccc(C(=O)c2cc(O)c(O)c([N+](=O)[O-])c2)cc1`, for which the mutagenic call by setting is: under setting [1], “inactive; negative”; (Test System: AMES SALMONELLA TYPHIMURIUM, Strain/Indicator: TA97, Metabolic Activation: NONE, Method: STANDARD PLATE) “inactive; negative”; (Test System: AMES SALMONELLA TYPHIMURIUM, Strain/Indicator: TA97, Metabolic Activation: RAT, LIVER, S-9, PHENOBARBITAL AND BETA-NAPHTHOFLAVONE, Method: PREINCUBATION) “inactive; negative”; (Test System: AMES SALMONELLA TYPHIMURIUM, Strain/Indicator: TA97, Metabolic Activation: RAT, LIVER, S-9, PHENOBARBITAL AND BETA-NAPHTHOFLAVONE, Method: STANDARD PLATE) “inactive; negative”; under setting [2], “inactive; negative”; (Test System: AMES SALMONELLA TYPHIMURIUM, Strain/Indicator: TA98, Metabolic Activation: NONE, Method: STANDARD PLATE) “inactive; negative”. The mutagenic call is, setting by setting: (Test System: AMES SALMONELLA TYPHIMURIUM, Strain/Indicator: TA98, Metabolic Activation: RAT, LIVER, S-9, PHENOBARBITAL AND BETA-NAPHTHOFLAVONE, Method: PREINCUBATION) “inactive; negative”; (Test System: AMES SALMONELLA TYPHIMURIUM, Strain/Indicator: TA98, Metabolic Activation: RAT, LIVER, S-9, PHENOBARBITAL AND BETA-NAPHTHOFLAVONE, Method: STANDARD PLATE) “inactive; negative”; under setting [3], “inactive; negative”; (Test System: AMES SALMONELLA TYPHIMURIUM, Strain/Indicator: TA100, Metabolic Activation: NONE, Method: STANDARD PLATE) “inactive; negative”; (Test System: AMES SALMONELLA TYPHIMURIUM, Strain/Indicator: TA100, Metabolic Activation: RAT, LIVER, S-9, PHENOBARBITAL AND BETA-NAPHTHOFLAVONE, Method: PREINCUBATION) “inactive; negative”; (Test System: AMES SALMONELLA TYPHIMURIUM, Strain/Indicator: TA100, Metabolic Activation: RAT, LIVER, S-9, PHENOBARBITAL AND BETA-NAPHTHOFLAVONE, Method: STANDARD PLATE) “inactive; negative”. Moreover, the mutagenic call is “inactive; negative” (Test System: AMES SALMONELLA TYPHIMURIUM, Strain/Indicator: TA102, Metabolic Activation: NONE, Method: PREINCUBATION); “inactive; negative” (Test System: AMES SALMONELLA TYPHIMURIUM, Strain/Indicator: TA102, Metabolic Activation: NONE, Method: STANDARD PLATE); “inactive; negative” (Test System: AMES SALMONELLA TYPHIMURIUM, Strain/Indicator: TA102, Metabolic Activation: RAT, LIVER, S-9, PHENOBARBITAL AND BETA-NAPHTHOFLAVONE, Method: PREINCUBATION); “inactive; negative” (Test System: AMES SALMONELLA TYPHIMURIUM, Strain/Indicator: TA102, Metabolic Activation: RAT, LIVER, S-9, PHENOBARBITAL AND BETA-NAPHTHOFLAVONE, Method: STANDARD PLATE); “inactive; negative” (Test System: AMES SALMONELLA TYPHIMURIUM, Strain/Indicator: TA1535, Metabolic Activation: NONE, Method: PREINCUBATION); “inactive; negative” (Test System: AMES SALMONELLA TYPHIMURIUM, Strain/Indicator: TA1535, Metabolic Activation: NONE, Method: STANDARD PLATE). Besides, the mutagenic call runs as follows: (Test System: AMES SALMONELLA TYPHIMURIUM, Strain/Indicator: TA1535, Metabolic Activation: RAT, LIVER, S-9, PHENOBARBITAL AND BETA-NAPHTHOFLAVONE, Method: PREINCUBATION) “inactive; negative”; (Test System: AMES SALMONELLA TYPHIMURIUM, Strain/Indicator: TA1535, Metabolic Activation: RAT, LIVER, S-9, PHENOBARBITAL AND BETA-NAPHTHOFLAVONE, Method: STANDARD PLATE) “inactive; negative”; (Test System: AMES SALMONELLA TYPHIMURIUM, Strain/Indicator: TA1537, Metabolic Activation: NONE, Method: PREINCUBATION) “inactive; negative”; (Test System: AMES SALMONELLA TYPHIMURIUM, Strain/Indicator: TA1537, Metabolic Activation: NONE, Method: STANDARD PLATE) “inactive; negative”; (Test System: AMES SALMONELLA TYPHIMURIUM, Strain/Indicator: TA1537, Metabolic Activation: RAT, LIVER, S-9, PHENOBARBITAL AND BETA-NAPHTHOFLAVONE, Method: PREINCUBATION) “inactive; negative”; (Test System: AMES SALMONELLA TYPHIMURIUM, Strain/Indicator: TA1537, Metabolic Activation: RAT, LIVER, S-9, PHENOBARBITAL AND BETA-NAPHTHOFLAVONE, Method: STANDARD PLATE) “inactive; negative”. In addition, the mutagenic call is, setting by setting: (Test System: AMES SALMONELLA TYPHIMURIUM, Strain/Indicator: TA1538, Metabolic Activation: NONE, Method: PREINCUBATION) “inactive; negative”; (Test System: AMES SALMONELLA TYPHIMURIUM, Strain/Indicator: TA1538, Metabolic Activation: NONE, Method: STANDARD PLATE) “inactive; negative”; (Test System: AMES SALMONELLA TYPHIMURIUM, Strain/Indicator: TA1538, Metabolic Activation: RAT, LIVER, S-9, PHENOBARBITAL AND BETA-NAPHTHOFLAVONE, Method: PREINCUBATION) “inactive; negative”; (Test System: AMES SALMONELLA TYPHIMURIUM, Strain/Indicator: TA1538, Metabolic Activation: RAT, LIVER, S-9, PHENOBARBITAL AND BETA-NAPHTHOFLAVONE, Method: STANDARD PLATE) “inactive; negative”; (Test System: CHINESE HAMSTER V-79, Strain/Indicator: V-79 (HPRT)/6-THIOGUANINE, Metabolic Activation: NONE, Method: SUSPENSION/PLATE) “inactive; negative”; (Test System: CHINESE HAMSTER V-79, Strain/Indicator: V-79 (HPRT)/6-THIOGUANINE, Metabolic Activation: RAT, LIVER, S-9, AROCLOR 1254, Method: SUSPENSION/PLATE) “inactive; negative”. Moreover, the mutagenic call is “inactive; negative” (Test System: E. COLI, Strain/Indicator: WP2 UVRA, Metabolic Activation: NONE, Method: PREINCUBATION); “inactive; negative” (Test System: E. COLI, Strain/Indicator: WP2 UVRA, Metabolic Activation: NONE, Method: STANDARD PLATE); “inactive; negative” (Test System: E. COLI, Strain/Indicator: WP2 UVRA, Metabolic Activation: RAT, LIVER, S-9, PHENOBARBITAL AND BETA-NAPHTHOFLAVONE, Method: PREINCUBATION); “inactive; negative” (Test System: E. COLI, Strain/Indicator: WP2 UVRA, Metabolic Activation: RAT, LIVER, S-9, PHENOBARBITAL AND BETA-NAPHTHOFLAVONE, Method: STANDARD PLATE); “inactive; negative” under setting [4].

For the molecule `Nc1c2c(nc3ccccc13)CCCC2`, the mutagenic call is “active; positive” (Test System: AMES SALMONELLA TYPHIMURIUM, Strain/Indicator: TA97, Metabolic Activation: HAMSTER LIVER S-9, AROCLOR 1254 (30%), Method: PREINCUBATION); “active; positive” under setting [1]; “active; positive” (Test System: AMES SALMONELLA TYPHIMURIUM, Strain/Indicator: TA97, Metabolic Activation: RAT LIVER S-9, AROCLOR 1254 (30%), Method: PREINCUBATION); “inactive; negative” (Test System: AMES SALMONELLA TYPHIMURIUM, Strain/Indicator: TA98, Metabolic Activation: HAMSTER LIVER S-9, AROCLOR 1254 (5 OR 10%), Method: PREINCUBATION); “active; positive” (Test System: AMES SALMONELLA TYPHIMURIUM, Strain/Indicator: TA98, Metabolic Activation: HAMSTER LIVER S-9, AROCLOR 1254 (30%), Method: PREINCUBATION); “inactive; negative” under setting [2]. Besides, the mutagenic call (Test System: AMES SALMONELLA TYPHIMURIUM, Strain/Indicator: TA98, Metabolic Activation: RAT LIVER S-9, AROCLOR 1254 (5%), Method: PREINCUBATION) was “active; positive”; the mutagenic call (Test System: AMES SALMONELLA TYPHIMURIUM, Strain/Indicator: TA98, Metabolic Activation: RAT LIVER S-9, AROCLOR 1254 (10%), Method: PREINCUBATION) was “active; positive”; the mutagenic call (Test System: AMES SALMONELLA TYPHIMURIUM, Strain/Indicator: TA98, Metabolic Activation: RAT LIVER S-9, AROCLOR 1254 (30%), Method: PREINCUBATION) was “inactive; negative”; the mutagenic call under setting [3] is “inactive; negative”; the mutagenic call (Test System: AMES SALMONELLA TYPHIMURIUM, Strain/Indicator: TA100, Metabolic Activation: RAT LIVER S-9, AROCLOR 1254 (30%), Method: PREINCUBATION) is “inactive; negative”; the mutagenic call (Test System: UDS MOUSE HEPATOCYTES, Strain/Indicator: THY INCORP, Metabolic Activation: NONE, Method: AUTORADIOGRAPHY) was “active; positive”. Moreover, under setting [4], the mutagenic call is “active; positive”.
